What all share (experiment): radiometric filter-binding kinase assay, Kinase HotSpot
Conditions in all cases: compound 0.5 µM; ATP 10 µM

The subject of assay [1] is ARAF (human), P10398 [Y301D/Y302D].
Assay [2] concerns the target STK33 (human) (UniProt Q9BYT3).
For assay [3], the target named is DYRK1B (human) (UniProt Q9Y463).
In assay [4] the target is LTK (human) (UniProt P29376).
In assay [5] the target is PRKCH (human) (UniProt P24723).

Here are results for 79 compounds from the kinase profiling compilation of Christmann-Franck et al. (2016).

ARAF (human), P10398 [Y301D/Y302D], sequence (P10398 whole entry Y301D/Y302D, looked up): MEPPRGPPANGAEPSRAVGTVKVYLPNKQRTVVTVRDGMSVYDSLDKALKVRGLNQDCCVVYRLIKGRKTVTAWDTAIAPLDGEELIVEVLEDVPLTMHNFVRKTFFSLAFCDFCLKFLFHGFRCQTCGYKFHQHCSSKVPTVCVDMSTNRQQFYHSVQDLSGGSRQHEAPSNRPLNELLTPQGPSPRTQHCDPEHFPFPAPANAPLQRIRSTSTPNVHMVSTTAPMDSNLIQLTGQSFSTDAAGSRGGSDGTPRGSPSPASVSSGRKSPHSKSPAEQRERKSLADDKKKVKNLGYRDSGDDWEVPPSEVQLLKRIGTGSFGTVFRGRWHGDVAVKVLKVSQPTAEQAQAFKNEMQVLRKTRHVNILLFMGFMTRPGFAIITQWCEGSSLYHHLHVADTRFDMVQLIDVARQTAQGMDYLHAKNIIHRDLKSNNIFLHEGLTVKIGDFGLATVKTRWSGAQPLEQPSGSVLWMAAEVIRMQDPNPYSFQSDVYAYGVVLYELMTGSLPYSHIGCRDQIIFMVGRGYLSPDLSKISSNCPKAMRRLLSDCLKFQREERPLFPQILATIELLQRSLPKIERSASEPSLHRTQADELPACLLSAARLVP
STK33 (human), sequence (Q9BYT3 whole entry, looked up): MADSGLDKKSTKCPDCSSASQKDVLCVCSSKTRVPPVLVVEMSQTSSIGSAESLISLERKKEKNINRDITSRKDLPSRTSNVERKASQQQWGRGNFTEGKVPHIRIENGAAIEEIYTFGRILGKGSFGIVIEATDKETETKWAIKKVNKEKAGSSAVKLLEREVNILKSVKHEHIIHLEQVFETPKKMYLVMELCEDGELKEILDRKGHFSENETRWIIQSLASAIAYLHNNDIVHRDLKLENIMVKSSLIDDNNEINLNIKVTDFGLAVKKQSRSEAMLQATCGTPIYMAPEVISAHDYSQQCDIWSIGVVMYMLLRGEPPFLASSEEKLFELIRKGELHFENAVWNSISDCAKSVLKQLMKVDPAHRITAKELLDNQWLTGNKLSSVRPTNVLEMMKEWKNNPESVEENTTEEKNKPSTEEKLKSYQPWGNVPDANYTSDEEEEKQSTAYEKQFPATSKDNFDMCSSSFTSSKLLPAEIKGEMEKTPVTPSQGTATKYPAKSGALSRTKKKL
LTK (human), sequence (P29376 whole entry, looked up): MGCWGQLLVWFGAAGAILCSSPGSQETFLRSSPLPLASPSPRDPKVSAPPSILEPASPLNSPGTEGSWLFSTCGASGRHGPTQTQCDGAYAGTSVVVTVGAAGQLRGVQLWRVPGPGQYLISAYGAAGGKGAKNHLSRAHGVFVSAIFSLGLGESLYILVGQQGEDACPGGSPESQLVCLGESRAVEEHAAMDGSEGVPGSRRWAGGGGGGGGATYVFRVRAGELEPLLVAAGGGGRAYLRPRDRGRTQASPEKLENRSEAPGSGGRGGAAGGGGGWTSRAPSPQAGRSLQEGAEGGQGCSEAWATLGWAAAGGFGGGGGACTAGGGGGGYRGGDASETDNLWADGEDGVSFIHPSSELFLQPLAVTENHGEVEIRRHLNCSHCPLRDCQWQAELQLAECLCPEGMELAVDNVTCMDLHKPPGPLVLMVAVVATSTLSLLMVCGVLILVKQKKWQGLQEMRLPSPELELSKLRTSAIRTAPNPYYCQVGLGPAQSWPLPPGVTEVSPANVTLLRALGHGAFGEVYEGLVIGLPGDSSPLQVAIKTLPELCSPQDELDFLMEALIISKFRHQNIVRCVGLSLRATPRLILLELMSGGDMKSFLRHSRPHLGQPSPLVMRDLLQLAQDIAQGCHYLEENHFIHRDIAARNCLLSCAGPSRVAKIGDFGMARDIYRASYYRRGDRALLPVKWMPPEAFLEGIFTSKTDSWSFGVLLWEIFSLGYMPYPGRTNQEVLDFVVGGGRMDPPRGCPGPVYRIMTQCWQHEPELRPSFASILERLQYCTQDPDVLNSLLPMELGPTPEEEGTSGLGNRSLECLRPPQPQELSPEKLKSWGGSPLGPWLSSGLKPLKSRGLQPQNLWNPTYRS
DYRK1B (human), sequence (Q9Y463 whole entry, looked up): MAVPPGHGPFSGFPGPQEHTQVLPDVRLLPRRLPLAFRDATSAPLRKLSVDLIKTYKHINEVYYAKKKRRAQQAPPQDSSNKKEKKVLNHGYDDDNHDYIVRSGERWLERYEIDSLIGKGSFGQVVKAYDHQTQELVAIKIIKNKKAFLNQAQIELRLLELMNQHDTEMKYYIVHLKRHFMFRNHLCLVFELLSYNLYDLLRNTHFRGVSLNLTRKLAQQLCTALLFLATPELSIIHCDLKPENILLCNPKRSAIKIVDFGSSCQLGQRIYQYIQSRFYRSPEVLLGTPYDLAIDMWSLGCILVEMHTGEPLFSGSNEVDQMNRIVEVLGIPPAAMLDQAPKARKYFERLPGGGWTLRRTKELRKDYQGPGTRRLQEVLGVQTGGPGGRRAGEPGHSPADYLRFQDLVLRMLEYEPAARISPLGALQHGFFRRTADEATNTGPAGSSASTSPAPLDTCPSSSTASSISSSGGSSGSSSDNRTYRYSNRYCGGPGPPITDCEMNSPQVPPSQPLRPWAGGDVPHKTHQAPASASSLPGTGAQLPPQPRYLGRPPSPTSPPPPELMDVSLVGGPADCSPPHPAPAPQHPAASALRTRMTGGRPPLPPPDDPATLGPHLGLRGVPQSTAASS
PRKCH (human), sequence (P24723 whole entry, looked up): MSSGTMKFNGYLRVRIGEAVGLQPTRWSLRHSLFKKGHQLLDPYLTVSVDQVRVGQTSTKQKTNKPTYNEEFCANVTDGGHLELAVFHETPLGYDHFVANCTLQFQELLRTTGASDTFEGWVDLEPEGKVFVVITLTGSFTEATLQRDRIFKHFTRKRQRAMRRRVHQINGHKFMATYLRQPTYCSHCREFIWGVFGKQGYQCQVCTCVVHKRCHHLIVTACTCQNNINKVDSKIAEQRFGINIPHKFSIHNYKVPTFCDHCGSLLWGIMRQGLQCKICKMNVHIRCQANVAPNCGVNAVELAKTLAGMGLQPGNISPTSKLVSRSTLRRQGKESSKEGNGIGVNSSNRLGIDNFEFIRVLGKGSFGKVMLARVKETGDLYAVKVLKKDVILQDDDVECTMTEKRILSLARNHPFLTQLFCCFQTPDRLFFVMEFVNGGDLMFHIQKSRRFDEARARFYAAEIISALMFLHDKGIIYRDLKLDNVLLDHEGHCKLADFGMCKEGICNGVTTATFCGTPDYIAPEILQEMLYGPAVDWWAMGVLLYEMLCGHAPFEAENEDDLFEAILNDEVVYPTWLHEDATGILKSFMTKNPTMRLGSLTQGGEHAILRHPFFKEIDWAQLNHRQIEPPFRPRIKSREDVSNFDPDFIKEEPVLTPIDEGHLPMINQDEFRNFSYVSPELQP

By residual activity is commonly meant the signal under treatment as a percentage of the control signal. `CCOC(=O)c1c(C)[nH]c(/C=C2\C(=O)Nc3ccccc32)c1C`: the residual activity in assay [1] was found to be 94.7%.

In the case of `CCC(=O)Nc1ccc2ncnc(Nc3cccc(Br)c3)c2c1`, the residual activity in assay [1] came out at 93.4%.

In the case of `COc1cc(Nc2c(C#N)cnc3cc(OCCCN4CCN(C)CC4)c(OC)cc23)c(Cl)cc1Cl`, in assay [1], the residual activity amounted to 109%.

Take `CCc1nc(-c2ccc(OC)cc2)[nH]c1-c1ccncc1`: the residual activity in assay [1] is 99.6%.

As for `N#C/C(=C1/Nc2ccccc2S1)c1ccnc(NCCc2cccnc2)n1`, the residual activity in assay [1] was determined as 97.6%.

Take `O=C1Cc2c([nH]c3ccc(Br)cc23)-c2ccccc2N1`: the residual activity in assay [1] is 104%.

Regarding `O=C1Nc2ccccc2/C1=C1\Nc2ccccc2\C1=N/O`, in assay [1], the residual activity was determined as 100%.

For the compound `N#Cc1c[nH]c2c[nH]/c(=N\Cc3cccnc3)cc2/c1=N\c1ccc(F)c(Cl)c1`, in assay [1], the residual activity turned out to be 106%.

Regarding `CC[n+]1c(/C=C/N(C)c2ccccc2)n(-c2ccccc2)c2ccc(-c3nc4ccccc4s3)cc21`, the residual activity in assay [1] was found to be 102%.

Turning to `CCOc1cc2ncnc(Nc3cccc(Br)c3)c2cc1OCC`, the residual activity in assay [1] was 105%.

For `CCN(CC)CCNC(=O)c1c(C)[nH]c(/C=C2\C(=O)Nc3ccc(F)cc32)c1C`, the residual activity in assay [1] amounted to 124%.

As for `Cc1[nH]c(/C=C2\C(=O)Nc3ccc(S(=O)(=O)N(C)c4cccc(Cl)c4)cc32)c(C)c1C(=O)N1CCN(C)CC1`, in assay [1], the residual activity was determined as 120%.

Turning to `Cc1cccc(-c2nc(C(C)(C)C)[nH]c2-c2ccc3c(c2)OCO3)n1`, the residual activity in assay [1] turned out to be 99.1%.

Regarding `O=C1NC(=O)c2cc(Nc3ccc(F)cc3)c(Nc3ccc(F)cc3)cc21`, in assay [1], the residual activity was found to be 90.7%.

As to `N#CCCc1ccc2c(c1)-c1[nH]c3ccc([N+](=O)[O-])cc3c1CC(=O)N2`, in assay [1], the residual activity turned out to be 94.5%.

Take `Nc1ncnc2c1c(-c1ccc(Oc3ccccc3)cc1)cn2C1CCCC1`: the residual activity in assay [1] amounted to 53%.

Turning to `O=C1NC(=O)C(c2c[nH]c3ccccc23)=C1c1c[nH]c2ccccc12`, the residual activity in assay [1] was determined as 155%.

On to `COc1ccc2c(c1)/C(=C/c1cnc[nH]1)C(O)=N2`, for which, in assay [1], the residual activity worked out at 111%.

`COc1cc2c(Nc3ccc(Br)cc3F)ncnc2cc1OCC1CCN(C)CC1`: the residual activity in assay [1] worked out at 84%.

As to `O=C1NC(=O)c2c1c1c3ccccc3[nH]c1n1cncc21`, the residual activity in assay [1] was determined as 93.8%.

Take `Nc1cccc(-c2cc3c(Oc4cccc(O)c4)ncnc3[nH]2)c1`: the residual activity in assay [1] came to 57.3%.

Regarding `O=C(c1cc2cc(O)ccc2[nH]1)c1cc2cc(O)ccc2[nH]1`, the residual activity in assay [1] turned out to be 98.6%.

Regarding `Cc1ccc(Nc2nccc(N(C)c3ccc4c(C)n(C)nc4c3)n2)cc1S(N)(=O)=O`, in assay [1], the residual activity worked out at 76.5%.

In the case of `N#CC(C#N)=C(N)/C(C#N)=C/c1ccc(O)cc1`, in assay [1], the residual activity was found to be 90.8%.

With `Nc1nnc2[nH]c3ccccc3nc1-2`, the residual activity in assay [1] is 119%.

Turning to `CNC(=O)c1cc(Oc2ccc(NC(=O)Nc3ccc(Cl)c(C(F)(F)F)c3)cc2)ccn1`, in assay [1], the residual activity was determined as 7.04%.

Turning to `Oc1cccc(-c2nc(N3CCOCC3)c3oc4ncccc4c3n2)c1`, in assay [1], the residual activity came to 92%.

For `N#C/C(=C(/N)Sc1ccc(N)cc1)c1ccccc1C(F)(F)F`, in assay [1], the residual activity was determined as 98.8%.

As for `O=c1cc(N2CCOCC2)oc2c(-c3ccccc3)cccc12`, in assay [1], the residual activity amounted to 105%.

As for `O=C(Nc1cccc(Nc2nccc(Nc3cccc(C(F)(F)F)c3)n2)c1)C1CC1`, the residual activity in assay [1] was 90.2%.

`CC#CC(=O)Nc1cc2c(Nc3ccc(F)c(Cl)c3)ncnc2cn1`: in assay [1], the residual activity amounted to 74.1%.

Consider `Cn1sc(=O)n(Cc2ccccc2)c1=O`, for which the residual activity in assay [1] came to 94.6%.

Turning to `O=C(Nc1cccc(Nc2cc(Nc3cccc(C(F)(F)F)c3)ncn2)c1)C1CC1`, in assay [1], the residual activity was found to be 95.1%.

For the compound `COc1cc2ncnc(Nc3ccc(Oc4ccccc4)cc3)c2cc1OC`, the residual activity in assay [1] was found to be 73.3%.

Turning to `COc1cc2c(N3CCN(C(=O)Nc4ccc(OC(C)C)cc4)CC3)ncnc2cc1OCCCN1CCCCC1`, in assay [1], the residual activity came out at 103%.

On to `COc1cc2ncc(-c3ccccc3)nc2cc1OC`, for which the residual activity in assay [1] worked out at 87.6%.

`CN(C)c1ccc(/C=C2\C(=O)Nc3ccccc32)cc1`: the residual activity in assay [1] was 94.3%.

For `COc1ccc(CNC(=O)Nc2ncc([N+](=O)[O-])s2)cc1`, in assay [1], the residual activity turned out to be 91%.

On to `C[C@@H]1CCN(C(=O)CC#N)C[C@@H]1N(C)c1ncnc2[nH]ccc12`, for which, in assay [1], the residual activity was 102%.

For `CN(C)CCCn1cc(C2=C(c3c[nH]c4ccccc34)C(=O)NC2=O)c2ccccc21`, in assay [1], the residual activity turned out to be 100%.

Turning to `CN(C)S(=O)(=O)c1ccc2c(c1)/C(=C/c1cc3c([nH]1)CCCC3)C(=O)N2`, the residual activity in assay [1] was 105%.

As for `O=C1Nc2ccc(Br)cc2/C1=C\c1cc2c([nH]1)CCCC2`, in assay [1], the residual activity turned out to be 106%.

Consider `Nc1ncnc2[nH]nc(Nc3ccc(F)cc3)c12`, for which the residual activity in assay [1] was 80.7%.

In the case of `Cc1ccc(NC2=CC(=O)c3sc(C)nc3C2=O)cc1`, in assay [1], the residual activity was 127%.

Regarding `N#Cc1c(NC(=O)c2cccc3ccccc23)sc2c1CCCC2`, the residual activity in assay [1] was 104%.

Turning to `O=c1[nH]c2ccccc2n1C1CCN(Cc2ccc(-c3nc4cc5[nH]cnc5cc4nc3-c3ccccc3)cc2)CC1`, in assay [1], the residual activity amounted to 99.2%.

With `O=C(CCCc1ccc(-c2ccccc2F)cc1)Nc1ccc(O)cc1`, the residual activity in assay [1] stood at 104%.

`CS(=O)(=O)CCNCc1ccc(-c2ccc3ncnc(Nc4ccc(OCc5cccc(F)c5)c(Cl)c4)c3c2)o1`: the residual activity in assay [1] was determined as 85%.

As for `COc1cc2ncnc(Nc3cccc(Cl)c3)c2cc1OC`, in assay [1], the residual activity came out at 108%.

With `CCn1cnc2c(Nc3cccc(Cl)c3)nc(N[C@@H]3CCCC[C@@H]3N)nc21`, the residual activity in assay [1] came out at 116%.

In the case of `Cn1cnc2cc3c(Nc4cccc(Br)c4)ncnc3cc21`, the residual activity in assay [1] came out at 119%.

For the compound `COc1ccc(COc2ccc(Cc3cnc(N)nc3N)cc2OC)cc1`, the residual activity in assay [1] stood at 96.6%.

As for `CCCCc1c(-c2ccc(O)cc2)[nH]c2nccnc12`, the residual activity in assay [1] was found to be 92.6%.

In the case of `O=C1NC(=O)/C(=C/c2ccc3c(c2)OC(F)(F)O3)S1`, the residual activity in assay [1] came out at 104%.

Turning to `COc1cc2ncnc(N3CCN(C(=O)Nc4ccc(Oc5ccccc5)cc4)CC3)c2cc1OC`, the residual activity in assay [1] turned out to be 105%.

As to `CN(C)C[C@H]1CCn2c(c(C3=C(c4cn(C)c5ccccc45)C(=O)NC3=O)c3ccccc32)C1`, the residual activity in assay [1] turned out to be 109%.

As to `CCN(CC)CCNC(=O)c1c(C)[nH]c(/C=C2\C(=O)Nc3ccc(Cl)cc32)c1C`, the residual activity in assay [1] amounted to 132%.

`CCN(CC)CCCCN1c2ccccc2Oc2ccc(Cl)cc21`: the residual activity in assay [1] came to 103%.

Consider `Nc1ncnc2c1cnn2-c1ccccc1`, for which the residual activity in assay [1] was determined as 99.3%.

With `COc1ccc(OC)c2c(=S)c3ccccc3[nH]c12`, the residual activity in assay [1] was 122%.

Turning to `COc1ccc(Cl)cc1NC(=O)Nc1cc(C)nc2ccccc12`, in assay [1], the residual activity is 92.4%.

For `O=S(=O)(NCCNC/C=C/c1ccc(Br)cc1)c1cccc2cnccc12`, the residual activity in assay [1] was found to be 95.8%.

As for `c1ccc2c(-c3ccncc3)c[nH]c2c1`, the residual activity in assay [1] amounted to 97.7%.

On to `CC(C)[C@H](CO)Nc1nc(Nc2cc(N)cc(Cl)c2)c2ncn(C(C)C)c2n1`, for which the residual activity in assay [1] is 82.4%.

For `COc1cccc(-c2cc(=O)c3ccccc3o2)c1N`, in assay [1], the residual activity was 98.9%.

In the case of `c1ccc(-c2n[nH]c3c2oc2ccccc23)cc1`, the residual activity in assay [1] was 93.8%.

On to `Nc1nccc(-c2c(-c3ccc(F)cc3)ncn2C2CCNCC2)n1`, for which the residual activity in assay [1] stood at 93.1%.

As for `O=C1NC(=O)/C(=C\c2ccc3nccnc3c2)S1`, the residual activity in assay [1] worked out at 103%.

For `N#C/C(=C\c1ccc(O)c(O)c1)C(=O)NCc1ccccc1`, in assay [1], the residual activity is 95.2%.

Take `c1ccc(-c2n[nH]cc2-c2ccnc3ccccc23)nc1`: the residual activity in assay [1] worked out at 91.5%.

Turning to `COC(=O)[C@]1(O)C[C@@H]2O[C@@]1(C)n1c3ccccc3c3c4c(c5c6ccccc6n2c5c31)C(=O)NC4`, the residual activity in assay [2] stood at 12.5%; in assay [3], 3.88%; in assay [4] it was 9.78%; in assay [5], 20.5%.

Regarding `Cn1c2ccccc2c2c3c(c4c5ccccc5n(CCC#N)c4c21)CNC3=O`, the residual activity in assay [1] amounted to 103%.

`Cc1cc(Nc2nc(-c3ccccc3)nc3ccccc23)n[nH]1`: in assay [1], the residual activity stood at 89.7%.

Consider `COc1cc2c(cc1OC)-c1[nH]nc(Nc3cccc(F)c3)c1C2`, for which the residual activity in assay [1] is 98.9%.

Consider `O=C1C(Cl)=C(N2C(=O)CCC2=O)C(=O)c2ccccc21`, for which the residual activity in assay [1] amounted to 105%.

On to `CO[C@@H]1[C@H](N(C)C(=O)c2ccccc2)C[C@H]2O[C@]1(C)n1c3ccccc3c3c4c(c5c6ccccc6n2c5c31)C(=O)NC4`, for which, in assay [1], the residual activity is 122%.

In the case of `CC(C)N(CCC(=O)c1ccc2ccccc2c1)Cc1ccccc1`, the residual activity in assay [1] came to 104%.

With `O=C(O)c1ccc2c3c1cccc3c(=O)n1c3ccccc3nc21`, the residual activity in assay [1] turned out to be 101%.

Turning to `FC(F)(F)c1ccc(/C=C/c2nc(COc3ccc(CCCCn4ccnn4)cc3)co2)cc1`, in assay [1], the residual activity came to 102%.
